23 compounds from patent publication US9179674B2, “Macrocyclic picolinamide compounds with fungicidal activity” (DOW AGROSCIENCES LLC, priority 2013, dated 2015) can be followed below.

The structures appear in SMILES notation. Like-named read-outs stand apart in the source and are kept apart here.

One assay concerns Puccinia triticina. The experiment in a line: Wheat Brown Rust fungicidal activity (PUCCRT). Format: in vivo. To be noted: rate 100 ppm; for pest or weed control at 100 ppm: Puccinia triticina. On the procedure:
Technical grades of materials were dissolved in acetone, which were then mixed with nine volumes of water containing 110 ppm Triton X-100. The fungicide solutions were applied onto wheat seedlings using an automated booth sprayer to run-off. All sprayed plants were allowed to air dry prior to further handling. All fungicides were evaluated using the aforementioned method for their activity vs. all target diseases. Wheat leaf blotch and brown rust activity were also evaluated using track spray applications, in which case the fungicides were formulated as EC formulations, containing 0.1% Trycol 5941 in the spray solutions. Wheat plants (variety Yuma) were grown from seed in a greenhouse in 50% mineral soil/50% soil-less Metro mix until the first leaf was fully emerged, with 7-10 seedlings per pot. These plants were inoculated with an aqueous spore suspension of Septoria tritici either prior to or after fungicide treatments. After inoculation the plants were kept in 100% relative humidity (one day in a dark dew chamber followed by two to three days in a lighted dew chamber at 20° C.) to permit spores to germinate and infect the leaf. The plants were then transferred to a greenhouse set at 20° C. for disease to develop. When disease symptoms were fully expressed on the 1st leaves of untreated plants, infection levels were assessed on a scale of 0 to 100 percent disease severity. Percent disease control was calculated using the ratio of disease severity on treated plants relative to untreated plants. Evaluation of Fungicidal Activity: Wheat Brown Rust (Puccinia triticina; Synonym: Puccinia recondite f sp. tritici; Bayer code PUCCRT) Wheat plants (variety Yuma) were grown from seed in a greenhouse in 50% mineral soil/50% soil-less Metro mix until the first leaf was fully emerged, with 7-10 seedlings per pot. These plants were inoculated with an aqueous spore suspension of Puccinia triticina either prior to or after fungicide treatments. After inoculation the plants were kept in a dark dew room at 22° C. with 100% relative humidity overnight to permit spores to germinate and infect the leaf. The plants were then transferred to a greenhouse set at 24° C. for disease to develop. Fungicide formulation, application and disease assessment followed the procedures as described in the Example A.

Assay [1] deals with Mycosphaerella graminicola; Anamorph: Septoria tritici. The experiment in a line: Leaf Blotch of Wheat fungicidal activity (SEPTTR). Format: in vivo. To be noted: rate 100 ppm; for pest or weed control at 100 ppm: Zymoseptoria tritici. On the procedure: Evaluation of Fungicidal Activity: Leaf Blotch of Wheat (Mycosphaerella graminicola; Anamorph: Septoria tritici; Bayer code […]) Technical grades of materials were dissolved in acetone, which were then mixed with nine volumes of water containing 110 ppm Triton X-100. The fungicide solutions were applied onto wheat seedlings using an automated booth sprayer to run-off. All sprayed plants were allowed to air dry prior to further handling. All fungicides were evaluated using the aforementioned method for their activity vs. all target diseases. Wheat leaf blotch and brown rust activity were also evaluated using track spray applications, in which case the fungicides were formulated as EC formulations, containing 0.1% Trycol 5941 in the spray solutions. Wheat plants (variety Yuma) were grown from seed in a greenhouse in 50% mineral soil/50% soil-less Metro mix until the first leaf was fully emerged, with 7-10 seedlings per pot. These plants were inoculated with an aqueous spore suspension of Septoria tritici either prior to or after fungicide treatments. After inoculation the plants were kept in 100% relative humidity (one day in a dark dew chamber followed by two to three days in a lighted dew chamber at 20° C.) to permit spores to germinate and infect the leaf. The plants were then transferred to a greenhouse set at 20° C. for disease to develop. When disease symptoms were fully expressed on the 1st leaves of untreated plants, infection levels were assessed on a scale of 0 to 100 percent disease severity. Percent disease control was calculated using the ratio of disease severity on treated plants relative to untreated plants.

Setting [2] is: 24 h, 1 Day Protectant, read-out: Disease control PUCCRT 1DP.
Where [3] appears, read: 72 h, 3 Day Curative, read-out: Disease control PUCCRT 3DC.
The mark [4] stands for this setting: 24 h, 1 Day Protectant, read-out: Disease control SEPTTR 1DP.
The mark [5] stands for this setting: 72 h, 3 Day Curative, read-out: Disease control SEPTTR 3DC.

`COc1ccnc(C(=O)N[C@H]2COC[C@H](CCc3ccccc3)[C@@H](OC(=O)C3CC3)[C@H](C)OC2=O)c1O` [Compound F15]: the pest or weed control at 100 ppm in the assay on Puccinia triticina (setting [2]) was 80 to 100%; in the assay on Puccinia triticina (setting [3]), 0 to 80%; in assay [1] (setting [4]) it was 80 to 100%; in assay [1] (setting [5]), 80 to 100%.

For `COc1ccnc(C(=O)N[C@H]2COC[C@H](CCc3ccccc3)[C@@H](Oc3ccc(C)cc3)[C@H](C)OC2=O)c1O` [Compound F16], the pest or weed control at 100 ppm in the assay with Puccinia triticina (setting [2]) lay in the range of 80 to 100%; in the assay on Puccinia triticina (setting [3]), 0 to 80%; in assay [1] (setting [4]), 80 to 100%; in assay [1] (setting [5]), 0 to 80%.

Turning to `COc1ccnc(C(=O)N[C@H]2COC[C@H](Cc3ccc(F)cc3)[C@@H](OCCCC(F)(F)F)[C@H](C)OC2=O)c1O` [Compound F17], the pest or weed control at 100 ppm in the assay on Puccinia triticina (setting [2]) lay within 80 to 100%; in the assay with Puccinia triticina (setting [3]), 0 to 80%; in assay [1] (setting [4]), 80 to 100%; in assay [1] (setting [5]), 80 to 100%.

As to `COc1ccnc(C(=O)N[C@H]2COC[C@H](Cc3ccc(F)cc3)[C@@H](OC3CCCC3)[C@H](C)OC2=O)c1O` [Compound F18], the pest or weed control at 100 ppm with Puccinia triticina (setting [2]) fell in the range of 80 to 100%; in the assay with Puccinia triticina (setting [3]), 80 to 100%; in assay [1] (setting [4]) it was 80 to 100%; in assay [1] (setting [5]), 0 to 80%.

Regarding `CCCCCO[C@@H]1[C@@H](Cc2ccc(F)cc2)COC[C@H](NC(=O)c2nccc(OC)c2O)C(=O)O[C@H]1C` [Compound F19], the pest or weed control at 100 ppm (in the assay on Puccinia triticina (setting [2]); in the assay with Puccinia triticina (setting [3]); in assay [1] (setting [4]); in assay [1] (setting [5])) was 80 to 100% each time.

Consider `COc1ccnc(C(=O)N[C@H]2COC[C@H](Cc3ccc(F)cc3)[C@@H](OCC(C)C)[C@H](C)OC2=O)c1O` [Compound F21], for which the pest or weed control at 100 ppm (in the assay with Puccinia triticina (setting [2]); with Puccinia triticina (setting [3]); in assay [1] (setting [4]); in assay [1] (setting [5])) was 80 to 100% each time.

Regarding `COc1ccnc(C(=O)N[C@H]2COC[C@H](Cc3ccc(C)cc3)[C@@H](OC(=O)C3CC3)[C@H](C)OC2=O)c1O` [Compound F22], the pest or weed control at 100 ppm (in the assay on Puccinia triticina (setting [2]); with Puccinia triticina (setting [3]); in assay [1] (setting [5])) was 0 to 80% each time.

On to `COc1ccnc(C(=O)N[C@H]2COC[C@H](Cc3ccc(C)cc3)[C@@H](OCCCC(F)(F)F)[C@H](C)OC2=O)c1O` [Compound F23], for which the pest or weed control at 100 ppm lay within 80 to 100% with Puccinia triticina (setting [2]), 0 to 80% in the assay with Puccinia triticina (setting [3]), 80 to 100% in assay [1] (setting [4]) and 0 to 80% in assay [1] (setting [5]).

Regarding `COc1ccnc(C(=O)N[C@H]2COC[C@H](Cc3ccc(C)cc3)[C@@H](Oc3ccccc3)[C@H](C)OC2=O)c1O` [Compound F24], the pest or weed control at 100 ppm in the assay on Puccinia triticina (setting [2]) was 80 to 100%; in the assay on Puccinia triticina (setting [3]) it was 0 to 80%; in assay [1] (setting [4]), 80 to 100%; in assay [1] (setting [5]), 0 to 80%.

For the compound `COc1ccnc(C(=O)N[C@H]2COC[C@H](Cc3ccc(C)cc3)[C@@H](OC3CCCC3)[C@H](C)OC2=O)c1O` [Compound F25], the pest or weed control at 100 ppm lay within 80 to 100% with Puccinia triticina (setting [2]), 0 to 80% in the assay on Puccinia triticina (setting [3]), 80 to 100% in assay [1] (setting [4]) and 80 to 100% in assay [1] (setting [5]).

As for `COc1ccnc(C(=O)N[C@H]2COC[C@H](Cc3ccc(C(F)(F)F)cc3)[C@@H](OC(=O)C3CC3)[C@H](C)OC2=O)c1O` [Compound F26], the pest or weed control at 100 ppm with Puccinia triticina (setting [2]) lay in the range of 0 to 80%; in assay [1] (setting [4]) it was 80 to 100%; in assay [1] (setting [5]), 0 to 80%.

Consider `COc1ccnc(C(=O)N[C@H]2COC[C@H](Cc3ccc(C(F)(F)F)cc3)[C@@H](OCC(C)C)[C@H](C)OC2=O)c1O` [Compound F27], for which the pest or weed control at 100 ppm fell in the range of 80 to 100% in the assay on Puccinia triticina (setting [2]), 0 to 80% with Puccinia triticina (setting [3]), 80 to 100% in assay [1] (setting [4]) and 0 to 80% in assay [1] (setting [5]).

In the case of `COc1ccnc(C(=O)N[C@H]2COC[C@H](Cc3ccc(C(F)(F)F)cc3)[C@@H](OC3CCCC3)[C@H](C)OC2=O)c1O` [Compound F28], the pest or weed control at 100 ppm in the assay with Puccinia triticina (setting [2]) lay in the range of 80 to 100%; in the assay on Puccinia triticina (setting [3]), 0 to 80%; in assay [1] (setting [4]) it was 80 to 100%; in assay [1] (setting [5]), 0 to 80%.

As for `CCCO[C@@H]1[C@@H](Cc2ccc(C(F)(F)F)cc2)COC[C@H](NC(=O)c2nccc(OC)c2O)C(=O)O[C@H]1C` [Compound F29], the pest or weed control at 100 ppm in the assay with Puccinia triticina (setting [2]) lay in the range of 80 to 100%; with Puccinia triticina (setting [3]), 0 to 80%; in assay [1] (setting [4]), 80 to 100%; in assay [1] (setting [5]), 80 to 100%.

On to `COc1ccnc(C(=O)N[C@H]2COC[C@H](Cc3ccc(C(F)(F)F)cc3)[C@@H](OCC(C)C)[C@H](C)OC2=O)c1O` [Compound F30], for which the “Disease control PUCCRT 1DP” value with Puccinia triticina (1 Day Protectant) is given as “A (80-100)”. Besides, the “Disease control SEPTTR 1DP” value in assay [1] (1 Day Protectant) is reported as “A (80-100)”. Further, the “Disease control SEPTTR 3DC” value in assay [1] (3 Day Curative) is recorded as “B (More than 0-Less than 80)”.

For `CCCCCO[C@@H]1[C@@H](Cc2ccc(C(F)(F)F)cc2)COC[C@H](NC(=O)c2nccc(OC)c2O)C(=O)O[C@H]1C` [Compound F31], the pest or weed control at 100 ppm in the assay on Puccinia triticina (setting [2]) is 0 to 80%; in assay [1] (setting [4]), 80 to 100%; in assay [1] (setting [5]) it was 0 to 80%.

Regarding `COc1ccnc(C(=O)N[C@H]2COC[C@H](CC(F)(F)F)[C@@H](OCC(C)C)[C@H](C)OC2=O)c1O` [Compound F32], the pest or weed control at 100 ppm in the assay on Puccinia triticina (setting [2]) fell in the range of 80 to 100%; in the assay with Puccinia triticina (setting [3]), 0 to 80%; in assay [1] (setting [4]), 80 to 100%; in assay [1] (setting [5]), 0 to 80%.

As to `COc1ccnc(C(=O)N[C@H]2COC[C@H](CC(F)(F)F)[C@@H](OC3CCCC3)[C@H](C)OC2=O)c1O` [Compound F33], the pest or weed control at 100 ppm in the assay with Puccinia triticina (setting [2]) lay in the range of 0 to 80%; in assay [1] (setting [4]), 80 to 100%; in assay [1] (setting [5]) it was 0 to 80%.

Turning to `COc1ccnc(C(=O)N[C@H]2COC[C@H](CCC(C)C)[C@@H](OCC(C)C)[C@H](C)OC2=O)c1O` [Compound F34], the pest or weed control at 100 ppm (in the assay on Puccinia triticina (setting [2]); in the assay with Puccinia triticina (setting [3]); in assay [1] (setting [4]); in assay [1] (setting [5])) was 80 to 100% throughout.

As to `COc1ccnc(C(=O)N[C@H]2COC[C@H](CCC(C)C)[C@@H](OCCCC(F)(F)F)[C@H](C)OC2=O)c1O` [Compound F35], the pest or weed control at 100 ppm lay within 80 to 100% with Puccinia triticina (setting [2]), 80 to 100% in assay [1] (setting [4]) and 0 to 80% in assay [1] (setting [5]).

Turning to `COc1ccnc(C(=O)N[C@H]2COC[C@H](CCC(C)C)[C@@H](OC(=O)C3CC3)[C@H](C)OC2=O)c1O` [Compound F36], the pest or weed control at 100 ppm with Puccinia triticina (setting [2]) fell in the range of 80 to 100%; with Puccinia triticina (setting [3]) it was 0 to 80%; in assay [1] (setting [4]), 80 to 100%; in assay [1] (setting [5]) it was 80 to 100%.

Regarding `COc1ccnc(C(=O)N[C@H]2COC[C@H](CCC(C)C)[C@@H](Oc3ccc(C)cc3)[C@H](C)OC2=O)c1O` [Compound F37], the pest or weed control at 100 ppm in the assay on Puccinia triticina (setting [2]) was in the range of 80 to 100%; in the assay on Puccinia triticina (setting [3]), 0 to 80%; in assay [1] (setting [4]) it was 80 to 100%; in assay [1] (setting [5]), 80 to 100%.

With `CCCO[C@@H]1[C@@H](CCC(C)C)COC[C@H](NC(=O)c2nccc(OC)c2O)C(=O)O[C@H]1C` [Compound F38], the pest or weed control at 100 ppm (in the assay on Puccinia triticina (setting [2]); in the assay with Puccinia triticina (setting [3]); in assay [1] (setting [4]); in assay [1] (setting [5])) was 80 to 100% throughout.
